# According to patent publication US12697330B2, “Therapeutic methods using vadadustat” (Akebia Therapeutics, Inc., priority 2021, dated 2026):
# What was measured:
# Assay type in all cases: in vivo, human
# erythropoietin (EPO) [1] = assay: Phase 2 study, Main Study: pharmacodynamics, Baseline-Unadjusted serum EPO concentration
# Protocol: (§1) PK/PD Endpoints. An exposure-response analysis of vadadustat and PD measures were conducted as deemed appropriate. The PK parameters included (but were not limited to) the following: area under concentration-time curve from dosing to last measurable concentration (AUClast), area under concentration-time curve from dosing to infinity (AUCinf), Cmax, apparent total body clearance (CL/F), apparent volume of distribution (Vd/F), and terminal half-life (t1/2). The PD parameters included (but were not limited to) the following: EPO, reticulocytes, iron, ferritin, TIBC, and hepcidin.
# (§2) PK population: included all randomized subjects who received study drug (vadadustat or epoetin alfa) and had enough drug concentrations to estimate AUC and Cmax. Analysis of this population was based on the dose amount taken at the date of PK sampling for the vadadustat group.
# PD parameters for serum EPO concentration are presented by epoetin alfa stratification for vadadustat treatment groups in Table 7, Table 8a and Table 8b (baseline-unadjusted) and Table 9, Table 10a and Table 10b (baseline-adjusted).
# [2] = Phase 2 study, Main Study: pharmacokinetics (vadadustat and vadadustat-O-glucuronide concentration)
# Protocol: as §1, §2
# hemodialysis subjects = assay: Main Study: vadadustat versus epoetin alfa in hemodialysis subjects (Hb, ESA/RBC rescue, EPO levels)
# Description: The primary efficacy endpoint was to assess the mean change in Hb between baseline and the PEP (Weeks 10 to 12) in hemodialysis subjects.
# The first key secondary efficacy endpoint was the proportion of subjects with Hb values within the target range (10.0 to 11.0 g/dL, inclusive) at the PEP (Weeks 10 to 12).
# The second key secondary endpoint was the mean change in Hb from PEP (average Hb from Weeks 10 to 12) to the SEP (average Hb from Weeks 18 to 20) for subjects who transitioned to TIW vadadustat dosing. In the Main Study, the change in Hb from PEP to SEP for the 17 subjects who switched from QD to TIW was −0.4 g/dL.
# erythropoietin (EPO) [3] = assay: Phase 1b study: pharmacodynamics, Baseline-unadjusted serum EPO concentration
# Protocol: PK and EPO Sample. For each vadadustat treatment group, blood samples for vadadustat PK (and its metabolites) and EPO were collected at the following time points: Day 1: predose, and at 1, 2, 3, 4, 5, 8, and 11 hours post dose; Day 2: 24 hours (−2 hours) post Day 1 dose; Day 6: blood sample for EPO analysis only was collected predose on Day 6; Day 8: predose, and at 1, 2, 3, 4, 5, 8, 11 hours post dose, Day 10 or EOT: predose. For the ESA treatment group, blood samples for analysis of EPO were collected at the following time points: Day 1: predose, and at 0.25, 1, 2, 3, 4, 5, 8, and 11 hours post dose; Day 2: 24 hours (−2 hours) post Day 1 dose.
# (§3) PD Sampling. For all vadadustat and ESA treatment groups, in addition to EPO, blood samples for Hb, reticulocytes and iron indices for PD analyses were collected on Day 1, Day 6 and Day 10. Hepcidin were collected predose on Day 1, Day 6, and Day 10 for PD analysis.
# (§4) Secondary Endpoints. For each treatment group, PD parameters included, but were not limited to, as deemed appropriate: hepcidin, erythropoietin (EPO), iron indices (iron, ferritin, total iron-binding capacity [TIBC], TSAT), Hb, and reticulocytes.
# The summary of serum concentration of Baseline-unadjusted EPO by time for the vadadustat treatment groups in the PK population are presented in FIGS. 1a-11b and FIGS. 12a-12b. The summary of PD parameters for Baseline-unadjusted serum EPO concentration for vadadustat treatment groups by dosing days for the PK population are summarized in Table 2.
# Hb = assay: Phase 1b study: pharmacodynamics, Hb, reticulocytes, iron indices, hepcidin; settings: 10-day Treatment period
# Description: as §3, §4
# [4] = low epoetin alfa stratum, Week 1 and Week 1+1 day
structure (smiles),measurement,setting,value
"O=C(O)CNC(=O)c1ncc(-c2cccc(Cl)c2)cc1O [vadadustat, {[5-(3-chlorophenyl)-3-hydroxypyridine-2-carbonyl]amino}acetic acid]",EPO concentration versus dose,erythropoietin (EPO) [1]; high epoetin alfa stratum,No particular trend
same,EPO Cmax versus dose,"erythropoietin (EPO) [1]; high epoetin alfa stratum, Week 1",dose dependent
same,EPO Cmax and AUC versus comparator,erythropoietin (EPO) [1]; [4],lower compared to the epoetin alfa treatment group
same,EPO Cmax and AUC versus dose,erythropoietin (EPO) [1]; [4],dose proportional
same,EPO concentration versus dose,"erythropoietin (EPO) [1]; low epoetin alfa stratum, Week 1 and Week 1+1 day (300, 450 mg), Week 11 (150 to 600 mg)",Dose dependent increases in EPO concentrations
same,concentrations versus dose,[2]; TIW group,No dose dependent increases in concentrations
same,"mean concentration versus time profiles, dose dependency","[2]; Week 1, Week 1+1 day, and Week 11",concentrations increased with dose levels
same,subjects receiving ESA administration as rescue,"hemodialysis subjects; Baseline (inclusive) to Week 12 (inclusive), compared to epoetin alfa treated subjects",more
same,subjects receiving any ESA administration,"hemodialysis subjects; Baseline (inclusive) to Week 20 (inclusive), compared to epoetin alfa treated subjects",more
same,change in Hb from PEP (Weeks 10 to 12) to SEP (Weeks 18 to 20),"hemodialysis subjects; Main Study, 17 subjects who switched from QD to TIW",-0.4 g/dL
same,mean change from baseline in Hb,"hemodialysis subjects; Main Study, baseline to PEP (Weeks 10 to 12), compared to epoetin alfa treatment group, throughout",numerically lower
same,mean (SD) Hb overall at Weeks 10 to 12,"hemodialysis subjects; Main Study, compared to epoetin alfa",lower
same,mean change in Hb between baseline and the SEP,"hemodialysis subjects; Main Study, compared to epoetin alfa treatment group",lower
same,proportion of subjects with RBC transfusion and RBC transfusion as rescue,"hemodialysis subjects; across treatment groups, all study periods",similar
same,change from baseline in Hb,"hemodialysis subjects; high epoetin alfa stratum, vadadustat 300 mg, after Week 10 Hb began to return towards baseline",decrease from baseline in Hb up to Week 10
same,number of subjects within target Hb range,"hemodialysis subjects; high epoetin alfa stratum, vadadustat groups (particularly 300 mg) compared to epoetin alfa treatment group",numerically lower
same,change from baseline in Hb,"hemodialysis subjects; low epoetin alfa stratum, except for the vadadustat 300 mg group throughout treatment",no decrease from baseline in Hb was observed
same,"proportion of subjects with Hb values within the target range (10.0 to 11.0 g/dL, inclusive) at Weeks 10 to 12","hemodialysis subjects; vadadustat 300 mg group of the high epoetin alfa stratum, lowest proportion",8.3%
same,EPO response,"erythropoietin (EPO) [3]; 600, 750, 900 mg QD, Day 1 and Day 8",variable EPO response
same,EPO after administration versus dose,erythropoietin (EPO) [3]; Day 8,dose-dependent increase of EPO
same,mean Hb levels versus dose,Hb,not a dose-dependent increase
